# According to US12589087B2, “Enantiomer selective action on neurotransmission” (The Board of Trustees of the Leland Stanford Junior …, priority 2021, dated 2026):
# How the values were obtained:
# [1] = Pharmacokinetics of 2MeGlu and 2MeGln in mice; format: in vivo; conditions: 100 mg/kg IP, mouse brain; for time of peak brain concentration: for rac-2MeGln: 2MeGln
# Description: C57BL/6 mice (Jackson Laboratory cat. no. 000664) were administered 100 mg/kg IP. […] Whole brain was promptly dissected and one half frozen at −80° C. until homogenization in ice cold PBS (pH 7.4) using a probe ultrasonic homogenizer (Branson Sonifier 450, Power: 5, Cycle: 30%, time: 10 s) on ice. The lysate was centrifuged (2,500 g for 15 min at 4° C.) and the supernatant was assayed using Pierce BCA Protein Assay Kit (23225) using BioTek Epoch plate spectrophotometer by recording absorbance at 562 nm. Two or three 10 μL aliquots of the homogenate were transferred to a 96 well plate and extracted with 190 μL of 60% acetonitrile in water containing 10 μM GABA-d6 or 10 μM Glu-d5 and Gln-d5 as internal standards. 40 μL aliquots of the extracts were then diluted with 120 μL of acetonitrile and prepared for LC-MS/MS analysis. Brain and serum half-lives were calculated using the ‘PKNCA’ package for R. Endogenous levels of Glu, Gln and GABA were determined in the brains of mice used in the pharmacokinetics experiment. MRM transitions specific for Glu, Gln and GABA were monitored simultaneously.
# C57Bl/6 mice = assay: SHIRPA, activity chamber open field and hot plate after single injection; format: in vivo, mouse
# Description: Dosing: (R)-2MeGlu (30, 100, 300, or 900 mg/kg), (S)-2MeGlu (30, 100, 300, or 900 mg/kg), rac-2MeGln (30, 100, 300, or 900 mg/kg) and vehicle (PBS) were administered at 10 ml/kg IP dosing volume. Three mice were dosed once with the assigned drug (100, 300, or 900 mg/kg) or vehicle and immediately placed in a new cage for novel cage observation. Subsequently, six mice were dosed once with the assigned drug (30 or 100 mg/kg) or vehicle and tested by SHIRPA, activity chamber, and then hot plate tests.
# Hot Plate apparatus (IITC Inc. Model 39) was set to 55° C.±0.2. On testing day, mice were placed on the surface of the hot plate and covered by a transparent glass cylinder (25 cm high and 12 cm diameter). A 30 second cutoff time was assigned. A remote foot-switch pad was used to control the start/stop/reset function. Latency time was recorded when hind paw licking or jumping off first occurred.
# The SHIRPA preliminary screen designed by Rogers et al. (1997) was modified and used to assess the general health and behavioral traits of the mice for the initial five minutes after drug administration. The test was conducted in three different testing locations: A cylindrical clear plastic viewing jar (15 cm height×10 cm diameter), a polycarbonate cage (Arena) with 10 cm×10 cm squares on the floor, and a 1 cm×1 cm wire grid. The test began by placing the mouse in the clear plastic viewing jar for 60 seconds, and the behavioral parameters were monitored and recorded. The mouse was then transferred to an open-top arena by releasing them from 25 cm above the floor of the arena. Upon completion of monitoring the parameters inside the arena, the mouse was removed from the arena by the tail. Behavioral parameters monitored were according to Portmann et al. (2014).
# Assessment was made in an Open Field Activity Arena (Med Associates Inc., St. Albans, VT. Model ENV-515) mounted with three planes of infrared detectors within a specially designed sound-attenuating chamber (Med Associates Inc., St. Albans, VT. MED-017M-027). The arena was 43 cm (L)×43 cm (W)×30 cm (H) and the sound-attenuating chamber was 74 cm (L)×60 cm (W)×60 cm (H). The mice were placed in the corner of the testing arena and allowed to explore the arena for 60 min while being tracked automatically. Parameters measured include distance moved, velocity, rearing, and times spent in the periphery and center of the Arena. Periphery was defined as the zone 5 cm away from the arena wall. The Arena was cleaned with a 1% Virkon solution at the end of the trial. […] The novel cage protocol is conducted on the benchtop in a lighted room using a clean home cage, and tests habituation using video recording and scoring of behavioral performance. Moreover, the novel cage allows the tester to visualize any other side effects such as seizure or repetitive jumping. The activity chamber is in an enclosed box, and the test is done in the dark, without bedding, and in a sound isolating chamber. The activity chamber measures distance moved using infrared beams and without video recordings.
# Exploratory behavioral tests were performed exactly as previously described by us using 2-month-old C57Bl/6 male mice, Example 1. First, we assessed safety and tolerability of acute exposure to 4APA enantiomers in 22 mice by novel cage observation at 100, 300, or 900 mg/kg IP compared to vehicle (PBS) IP (n=3 or 4 mice per group without sample calculation, based on our previous study. Next, we evaluated 24 drug naïve mice with a 23-measure battery of neurologic dysfunction in mice (SHIRPA) (Rogers et al., 2001), automated activity chamber assessment, and hot plate latency acutely following 30 or 100 mg/kg IP compared to vehicle IP (n=4 or 5 mice per group). No exclusion criteria were predetermined and no randomization was performed to allocate subjects in the study.
# [2] = single 30 mg/kg IP, only at 11 minutes post injection
# [3] = single 100 mg/kg IP, up to 6 minutes post injection
structure (smiles),measurement,setting,value
"CC(N)(CCC(N)=O)C(=O)O (racemic) [rac-2MeGln, rac-2-methylglutamine]",time of peak brain concentration,[1],25 min
same,distance moved in the activity chamber vs vehicle,C57Bl/6 mice; [2],modest but significant reduction
same,distance moved in the activity chamber vs vehicle,C57Bl/6 mice; [3],not significantly different from vehicle at any time point
"C[C@@](N)(CCC(=O)O)C(=O)O [(R)-2MeGlu, (R)-2-methylglutamic acid]",maximum brain concentration,[1],30 pmol/mg protein
same,time of peak brain concentration,[1],≤ 5 min
same,half-life,[1]; C57BL/6,~70 min
same,distance moved in the activity chamber vs vehicle,C57Bl/6 mice; [2],modest but significant reduction
same,distance moved in the activity chamber vs vehicle,C57Bl/6 mice; [3],significantly reduced
"C[C@](N)(CCC(=O)O)C(=O)O [(S)-2MeGlu, (S)-2-methylglutamic acid]",maximum brain concentration,[1],50 pmol/mg protein
same,time of peak brain concentration,[1],25 min
same,distance moved in the activity chamber vs vehicle,C57Bl/6 mice; [2],not significantly different
same,distance moved in the activity chamber vs vehicle,C57Bl/6 mice; [3],significantly reduced
